# According to patent publication US20250197447A1, “PEPTIDE HAVING ANTI-AGING ACTIVITY, AND USE THEREOF” (CAREGEN CO., LTD., priority 2021, published 2025):
# Key:
# [1] = test system: NIH3T3 cells (mouse fibroblast cell line); assay: Intracellular reactive oxygen species (ROS) level after UVA irradiation, DCFH-DA / FACS; type: cell-based; settings: peptide 10, 50, 100 μM for 1 hour before 8 J/cm^2 UVA, 24 hours culture, FIG. 1
# Experimental: The reactive oxygen species level increases when UV is irradiated. Therefore, it was confirmed whether the reactive oxygen species level decreased again and the aging phenomenon caused by oxidative stress in cells was inhibited when treated with the peptide of the present invention.
# (§1) First, NIH3T3 cells (mouse fibroblast cell line) were seeded in a 6-well plate at a cell density of 5×10^5 cell/well, and then the cells were cultured in DMEM medium containing 10% fetal bovine serum (FBS) for 24 hours. The cultured cells were washed once with serum free DMEM medium, and the peptide of the present invention was mixed in 1 mL of the serum free DMEM medium at each of concentrations of 10, 50, and 100 μM, and then dispensed into the cells. A positive control (PC) was treated with 7.5 mM of N-Acetylcysteine (NaC) instead of the above peptide.
# The cells were cultured in a CO2 incubator at 37° C. for 1 hour. The medium of the cultured cells was transferred to a tube, 1 ml of PBS was added, and irradiation was performed with 8 J/cm^2 of UVA using a UV irradiator (VILBER LOURMAT, Cat No.: 3102-BSU, France). After removing PBS, 900 μL of the medium transferred to the tube was treated again, and culture was performed in a CO2 incubator at 37° C. for 24 hours. […] After centrifugation, the cells were washed with PBS, and a fluorescence value was measured through FACS.
# collagen (Col1a1) = assay: RT-PCR of collagen (Col1a1) mRNA decreased by UV irradiation in fibroblasts; type: cell-based, mouse; settings: NIH3T3 cells; peptide 10, 50, 100 μM before 6 J/cm^2 UVA; 6 hours culture; FIGS. 2A, 2B
# Experimental: (§2) Expression of collagen, fibronectin, and elastin genes constituting the extracellular matrix (ECM) is inhibited when irradiated with UV. Therefore, it was confirmed whether the photoaging phenomenon of the cells was inhibited by confirming whether the expression levels of collagen, fibronectin, and elastin genes were restored and increased when treated with the peptide of the present invention.
# (§3) First, NIH3T3 cells were seeded in a 6-well plate at a cell density of 5×10^5 cell/well, and then the cells were cultured in DMEM medium containing 10% fetal bovine serum (FBS) for 24 hours. The cultured cells were washed once with serum free DMEM medium, and the peptide of the present invention was mixed in 1 mL of the serum free DMEM medium at each of concentrations of 10, 50, and 100 μM, and dispensed into the cells. A positive control (PC) was treated with 50 μM of Quercetin instead of the above peptide.
# (§4) The cells were cultured in a CO2 incubator at 37° C. for 1 hour. […] The amount of RNA isolated was quantified, 1,000 ng of RNA per tube was added, and reverse transcription into cDNA was performed using a kit (enzynomics, Cat. No.: RT200, Korea), and RT-PCR was performed using a PCR kit (enzynomics, Cat. No.: P581T, Korea). […]
# fibronectin = assay: RT-PCR of fibronectin mRNA decreased by UV irradiation in fibroblasts; type: cell-based, mouse; settings: NIH3T3 cells; peptide 10, 50, 100 μM before 6 J/cm^2 UVA; 6 hours culture; FIGS. 2A, 2C
# Experimental: as §2, §3, §4
# elastin = assay: RT-PCR of elastin mRNA decreased by UV irradiation in fibroblasts; type: cell-based, mouse; settings: NIH3T3 cells; peptide 10, 50, 100 μM before 6 J/cm^2 UVA; 6 hours culture; FIGS. 2A, 2D
# Experimental: as §2, §3, §4
# [2] = test system: apoptotic-inducing factors (Cleaved PARP-1, Bax, Cleaved Caspase-3); assay: Western blot of apoptotic-inducing factors increased by UV irradiation in NIH3T3 fibroblasts; type: cell-based, mouse; settings: peptide 10, 50, 100 μM before 6 J/cm^2 UVA, 48 hours culture, FIGS. 3A to 3D
# Experimental: Expression of the apoptotic-inducing factors increases when irradiated with UV. Therefore, it was confirmed whether the photoaging phenomenon of the cells was inhibited and the damaged cells were regenerated by confirming whether the increased expression levels of the apoptotic-inducing factors such as cleaved PARP-1, cleaved Caspase-3, and […] decreased again when treated with the peptide of the present invention.
# as §1, with “NIH3T3 cells were seeded” for “NIH3T3 cells (mouse fibroblast cell line) were seeded”, “μM, and dispensed into” for “μM, and then dispensed into”, “treated with 2.5 mM of” for “treated with 7.5 mM of”
# (§5) The cells were cultured in a CO2 incubator at 37° C. for 1 hour, the medium of the cultured cells was transferred to a tube, 1 mL of PBS was added, and then irradiation was performed with 6 J/cm^2 of UVA using a UV irradiator (VILBER LOURMAT, Cat No.: 3102-BSU, France). After removing PBS, 900 μL of the medium transferred to the tube was added again, and culture was performed in a CO2 incubator at 37° C. for 48 hours. […]
# MMP-1 [3] = assay: Western blot of MMP-1 increased by UV irradiation in fibroblasts; type: cell-based, mouse; settings: NIH3T3 cells; peptide 10, 50, 100 μM before 6 J/cm^2 UVA; 48 hours culture; FIGS. 4A, 4B
# Experimental: (§6) The expression of MMP-1 and MMP-2 encoding proteins related to collagen degradation is increased by ultraviolet irradiation. Therefore, it was confirmed whether the synthesis of the MMP-1 and MMP-2 proteins was inhibited again and the cell aging phenomenon was inhibited when treated with the peptide of the present invention.
# as §1, with “NIH3T3 cells were seeded” for “NIH3T3 cells (mouse fibroblast cell line) were seeded”, “μM, and dispensed into” for “μM, and then dispensed into”, “treated with 2.5 mM of” for “treated with 7.5 mM of”
# as §5, with “hour. The” for “hour, the”, “ml” for “mL”, “and” for “and then”, “added,” for “added again,”
# MMP-2 = assay: Gelatin zymography of MMP-2 in culture medium after UV irradiation of fibroblasts; type: cell-based, mouse; settings: NIH3T3 cells, peptide 10, 50, 100 μM before 6 J/cm^2 UVA, 48 hours culture, FIGS. 4A, 4C
# Experimental: as §6
# as §1, with “NIH3T3 cells were seeded” for “NIH3T3 cells (mouse fibroblast cell line) were seeded”, “μM, and dispensed into” for “μM, and then dispensed into”, “treated with 2.5 mM of” for “treated with 7.5 mM of”
# as §5, with “hour. The” for “hour, the”, “ml” for “mL”, “and” for “and then”, “added,” for “added again,”
# MMP-1 [4] = assay: Western blot of MMP-1 increased by heat treatment in fibroblasts; type: cell-based, mouse; settings: NIH3T3 cells; peptide 10, 50, 100 μM for 24 hours before 44° C. for 40 minutes; 8 hours culture; FIGS. 5A, 5B
# Experimental: The expression of MMP-1 encoding proteins related to collagen degradation increases by heat treatment. Therefore, it was confirmed whether the synthesis of the MMP-1 protein was inhibited again and the cell aging phenomenon was inhibited when treated with the peptide of the present invention.
# as §1, with “NIH3T3 cells were seeded” for “NIH3T3 cells (mouse fibroblast cell line) were seeded”, “μM, and dispensed into” for “μM, and then dispensed into”, “treated with 2.5 mM of” for “treated with 7.5 mM of”, “N-Acetylcysteine (NaC) or 2 mM of Glutathione (GSH) instead of” for “N-Acetylcysteine (NaC) instead of”
# The cells were cultured in a CO2 incubator at 37° C. for 24 hours. A lid and a lower plate of the 6-well plate were sealed with a paraffin film for heat treatment, the lower plate was immersed in a water bath at 44° C., and culture was performed for 40 minutes. After removing the medium, 1 mL of the serum free DMEM medium was added, and culture was performed in a CO2 incubator at 37° C. for 8 hours. Thereafter, the cells were washed twice with PBS, and then a cell lysis buffer was added to obtain a lysate. […]
sequence,measurement,setting,value
LKKNGSCKRGPRTHYGQK [peptide of the present invention],intracellular reactive oxygen species level increased by ultraviolet irradiation,[1],decreased
same,mRNA expression of collagen decreased by UV irradiation,collagen (Col1a1),increased
same,mRNA expression of fibronectin decreased by UV irradiation,fibronectin,increased
same,mRNA expression of elastin decreased by UV irradiation,elastin,increased
same,expression of the apoptotic-inducing factors increased in the cells damaged by UV irradiation,[2],decreased
same,expression and activity of MMP-1 increased by UV irradiation,MMP-1 [3],inhibited
same,expression and activity of MMP-2 increased by UV irradiation,MMP-2,inhibited
same,amount of MMP-1 protein whose expression was increased by heat treatment,MMP-1 [4],decreased
